Results taken from article PMC5467694 (European journal of pharmacology, 2009).

Key:
[1] = molecular target: recombinant α1β2γ2 GABAA receptor (Homo sapiens, UniProt P14867+P18507+P47870); assay: Electrophysiological GABAA patch-clamp assay; type: cell-based
[2] = system: recombinant human NAs Neu1–4; assay: NA inhibition assay, all 4 recombinant human NAs; type: biochemical; conditions: for partial inhibition of all 4 human NAs: concentrations higher than 1 mM; for inhibition of all 4 human NAs: up to a concentration of 1 mM
[3] = system: native non-human primate brain NA activity (microsomal and membrane fractions); assay: NA inhibition assay, non-human primate brain extracts; type: biochemical, Macaca fascicularis
[4] = system: panel of 155 molecular targets unrelated to NAs; assay: Selectivity panel of 155 molecular targets unrelated to NAs; conditions: for pharmacological activity on panel targets: 3 and 30 μM, 50% cut-off for relevance; for low levels of activity, inhibition/stimulation, on eleven targets: at either 3 μM or 30 μM
[5] = system: human Neu2; conditions: read-out: IC50 on human Neu2; recombinant; ref Hata et al. (2008); cited from earlier work
[6] = system: human Neu4; conditions: read-out: IC50 on human Neu4; recombinant; ref Hata et al. (2008); cited from earlier work
[7] = molecular target: recombinant human Neu2 (Homo sapiens, UniProt Q9Y3R4); assay: NA inhibition assay, recombinant human Neu2; type: biochemical
[8] = system: human Neu3; conditions: read-out: IC50 on human Neu3; recombinant; ref Hata et al. (2008); cited from earlier work
[9] = molecular target: recombinant human Neu1 (Homo sapiens, UniProt Q99519); assay: NA inhibition assay, recombinant human Neu1; type: biochemical
[10] = system: recombinant human NAs; conditions: concentrations up to 1 mM; ref Hata et al. (2008); cited from earlier work
[11] = system: human Neu1; conditions: read-out: IC50 on human Neu1; recombinant; ref Hata et al. (2008); cited from earlier work
[12] = molecular target: T1, recombinant human Neu4 (Homo sapiens, UniProt Q8WWR8); assay: NA inhibition assay, recombinant human Neu4; type: biochemical
T1 sequence (Q8WWR8 1-484): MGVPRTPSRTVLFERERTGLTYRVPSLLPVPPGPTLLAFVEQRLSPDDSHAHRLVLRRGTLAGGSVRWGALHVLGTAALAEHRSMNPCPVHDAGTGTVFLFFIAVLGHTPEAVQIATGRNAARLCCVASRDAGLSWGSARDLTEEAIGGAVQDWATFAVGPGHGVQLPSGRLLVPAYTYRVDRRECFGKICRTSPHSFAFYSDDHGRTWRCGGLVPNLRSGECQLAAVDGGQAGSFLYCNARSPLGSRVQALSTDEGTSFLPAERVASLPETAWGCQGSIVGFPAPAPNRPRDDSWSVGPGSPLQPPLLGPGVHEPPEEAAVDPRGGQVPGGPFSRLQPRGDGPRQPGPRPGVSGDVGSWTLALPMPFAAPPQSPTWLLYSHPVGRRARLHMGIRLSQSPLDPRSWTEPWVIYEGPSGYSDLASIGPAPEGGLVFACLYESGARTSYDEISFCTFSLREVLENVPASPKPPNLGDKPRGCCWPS

[13] = system: NA activity of different viral strains; conditions: read-out: IC50 on NA activity of different viral strains; ref Hata et al. (2008); cited from earlier work
[14] = system: NA activity in rat brain tissue; assay: NA inhibition assay, rat brain-derived tissue; type: biochemical; conditions: concentrations up to 1 mM
[15] = system: Gαi- and Gαs-linked G protein-coupled receptors in whole rat brain membranes; conditions: ref Satoh et al. (2007); cited from earlier work
[16] = Steady-state exposure in adults, standard regimen; type: in vivo, human; conditions: 75 mg twice daily for 5 days
[17] = molecular target: T2, recombinant human Neu3 (Homo sapiens, UniProt Q9UQ49); assay: NA inhibition assay, recombinant human Neu3; type: biochemical
T2 sequence (Q9UQ49 1-428): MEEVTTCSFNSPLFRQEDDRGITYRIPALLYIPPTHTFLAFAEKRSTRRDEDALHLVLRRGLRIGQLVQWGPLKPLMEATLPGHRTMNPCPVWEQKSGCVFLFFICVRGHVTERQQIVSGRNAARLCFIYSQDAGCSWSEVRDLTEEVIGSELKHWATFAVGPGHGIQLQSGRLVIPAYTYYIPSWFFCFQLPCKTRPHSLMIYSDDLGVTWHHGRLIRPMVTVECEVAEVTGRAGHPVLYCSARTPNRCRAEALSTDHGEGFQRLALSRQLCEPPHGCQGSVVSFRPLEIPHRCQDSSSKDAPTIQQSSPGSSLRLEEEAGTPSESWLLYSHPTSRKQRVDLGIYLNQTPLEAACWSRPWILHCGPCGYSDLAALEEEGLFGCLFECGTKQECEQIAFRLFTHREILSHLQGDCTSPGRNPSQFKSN

[18] = molecular target: recombinant influenza virus NA (Influenza A virus, UniProt Q30NP8); assay: NA inhibition assay, recombinant influenza virus NA; type: biochemical, influenza strain A/Beijing/39/1975 H3N2
[19] = concentrations higher than 10 mM
[20] = microsomal and membrane fractions, concentrations up to 10 mM
[21] = concentrations higher than 5 mM
[22] = concentrations higher than 1 mM
[23] = concentrations higher than 2 mM

recombinant human Neu2, sequence (Q9Y3R4 whole entry): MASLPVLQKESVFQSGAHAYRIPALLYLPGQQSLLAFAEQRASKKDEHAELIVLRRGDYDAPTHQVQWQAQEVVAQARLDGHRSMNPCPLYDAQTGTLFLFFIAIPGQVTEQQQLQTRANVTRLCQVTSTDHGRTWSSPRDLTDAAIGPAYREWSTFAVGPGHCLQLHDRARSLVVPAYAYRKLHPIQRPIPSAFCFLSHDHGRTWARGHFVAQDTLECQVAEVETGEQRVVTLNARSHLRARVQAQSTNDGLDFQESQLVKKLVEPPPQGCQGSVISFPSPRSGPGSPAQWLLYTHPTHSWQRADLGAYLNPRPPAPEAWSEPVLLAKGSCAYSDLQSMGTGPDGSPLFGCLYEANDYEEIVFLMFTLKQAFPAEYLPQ
recombinant α1β2γ2 GABAA receptor, sequence (P14867 28-456): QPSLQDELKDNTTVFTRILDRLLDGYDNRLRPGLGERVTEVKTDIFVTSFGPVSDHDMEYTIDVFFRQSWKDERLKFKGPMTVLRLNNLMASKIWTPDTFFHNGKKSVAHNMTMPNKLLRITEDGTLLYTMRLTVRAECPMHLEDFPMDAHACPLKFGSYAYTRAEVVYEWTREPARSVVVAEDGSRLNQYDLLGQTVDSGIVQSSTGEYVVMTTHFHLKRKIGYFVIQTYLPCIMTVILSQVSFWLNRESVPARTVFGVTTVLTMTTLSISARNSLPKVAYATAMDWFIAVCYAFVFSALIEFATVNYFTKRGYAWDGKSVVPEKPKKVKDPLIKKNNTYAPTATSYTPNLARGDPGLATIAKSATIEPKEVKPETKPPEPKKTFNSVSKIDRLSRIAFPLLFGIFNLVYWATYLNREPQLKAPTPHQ
recombinant α1β2γ2 GABAA receptor, sequence (P47870 25-512 limits assumed): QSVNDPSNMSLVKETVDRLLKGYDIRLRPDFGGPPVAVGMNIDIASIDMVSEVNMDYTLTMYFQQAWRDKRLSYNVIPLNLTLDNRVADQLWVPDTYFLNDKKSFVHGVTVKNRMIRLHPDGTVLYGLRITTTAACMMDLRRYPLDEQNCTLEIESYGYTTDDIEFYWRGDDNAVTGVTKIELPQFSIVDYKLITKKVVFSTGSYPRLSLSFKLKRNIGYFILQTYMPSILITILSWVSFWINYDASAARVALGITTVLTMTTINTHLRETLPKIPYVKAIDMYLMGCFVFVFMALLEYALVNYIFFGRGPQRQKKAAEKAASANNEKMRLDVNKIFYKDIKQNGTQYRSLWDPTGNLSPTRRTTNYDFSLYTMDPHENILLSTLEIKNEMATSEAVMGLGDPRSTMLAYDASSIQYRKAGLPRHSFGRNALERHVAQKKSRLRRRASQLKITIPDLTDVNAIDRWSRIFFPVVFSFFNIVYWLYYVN
recombinant α1β2γ2 GABAA receptor, sequence (P18507 40-475): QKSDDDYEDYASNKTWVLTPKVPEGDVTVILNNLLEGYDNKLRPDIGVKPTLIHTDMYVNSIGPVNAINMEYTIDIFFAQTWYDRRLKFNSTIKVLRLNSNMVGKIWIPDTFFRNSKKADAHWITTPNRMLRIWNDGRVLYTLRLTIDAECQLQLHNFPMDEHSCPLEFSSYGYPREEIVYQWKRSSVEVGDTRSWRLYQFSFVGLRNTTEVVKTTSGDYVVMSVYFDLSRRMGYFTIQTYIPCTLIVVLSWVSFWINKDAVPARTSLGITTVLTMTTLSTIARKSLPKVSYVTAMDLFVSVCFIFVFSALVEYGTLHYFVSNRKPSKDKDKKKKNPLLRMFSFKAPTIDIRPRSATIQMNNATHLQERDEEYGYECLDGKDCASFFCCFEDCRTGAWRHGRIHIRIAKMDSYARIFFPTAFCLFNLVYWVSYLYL
recombinant influenza virus NA, sequence (Q30NP8 whole entry, looked up): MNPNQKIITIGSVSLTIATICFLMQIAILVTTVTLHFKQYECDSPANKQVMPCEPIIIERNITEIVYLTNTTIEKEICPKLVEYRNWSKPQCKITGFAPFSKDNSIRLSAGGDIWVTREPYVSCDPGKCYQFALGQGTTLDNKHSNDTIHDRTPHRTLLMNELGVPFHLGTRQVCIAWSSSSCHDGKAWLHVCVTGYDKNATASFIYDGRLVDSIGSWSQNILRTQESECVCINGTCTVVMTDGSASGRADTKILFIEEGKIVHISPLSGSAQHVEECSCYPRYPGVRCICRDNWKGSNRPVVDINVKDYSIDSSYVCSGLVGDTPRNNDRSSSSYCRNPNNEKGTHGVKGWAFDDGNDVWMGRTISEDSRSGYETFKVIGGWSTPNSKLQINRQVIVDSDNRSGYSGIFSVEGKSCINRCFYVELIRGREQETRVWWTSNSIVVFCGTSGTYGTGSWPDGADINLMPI

Row | SMILES | activity on GABAA in patch-clamp, on GABA and pentobarbital [1] | partial inhibition of all 4 human NAs [2] | inhibition of all 4 human NAs [2] | inhibition of non-human primate brain NA activity [3, 19] | inhibition of non-human primate brain NA activity [3, 20] | pharmacological activity on panel targets [4] | low levels of activity, inhibition/stimulation, on eleven targets [4] | inhibitory activity on Neu2 [7, 21] | inhibitory activity on Neu2 ([7]; concentrations up to 5 mM) | inhibitory activity on Neu1 [9, 22] | inhibitory activity on Neu1 ([9]; concentrations up to 1 mM) | inhibitory activity on Neu4 [12, 23] | inhibitory activity on Neu4 ([12]; concentrations up to 2 mM) | inhibition of NA activity in rat brain tissue [14] | effect on [35S]-GTP-γS binding [15] | extrapolated brain Cmax [16] | inhibitory activity on Neu3 [17, 21] | inhibitory activity on Neu3 ([17]; concentrations up to 5 mM) | also measured
1 | CCC(CC)O[C@@H]1C=C(C(=O)O)C[C@H](N)[C@H]1NC(C)=O [OC, oseltamivir carboxylate] | lack of any significant, inhibitory, excitatory or modulatory activity | 20–40% | no inhibition | partial inhibition | no inhibition | no relevant pharmacological activity | 20–27% | partial inhibition | no inhibition | partial inhibition | no inhibitory activity | trend for an inhibitory activity | no inhibition | no inhibition | no effect | ~ 77 nM | partial inhibition | no inhibition | IC50 [5]: > 6 mM; IC50 [6]: > 10 mM; IC50 [8]: > 10 mM; inhibitory activity on any of the human NAs [10]: no or negligible inhibitory activity; IC50 [11]: > 10 mM; IC50 [13]: 1.6 to 7.1 nM
2 | CCOC(=O)C1=C[C@@H](OC(CC)CC)[C@H](NC(C)=O)[C@@H](N)C1 [OP, oseltamivir phosphate] | lack of any significant, inhibitory, excitatory or modulatory activity | 20–40% | no inhibition | partial inhibition | no inhibition | no relevant pharmacological activity | 20–41% | partial inhibition | no inhibition | partial inhibition | no inhibitory activity | trend for an inhibitory activity | no inhibition | no inhibition | no effect | ~ 6.7 nM | partial inhibition | no inhibition | IC50 [18]: ~0.01 mM
